Here are results for one molecule from patent US20160158245A1, “PHARMACEUTICAL FORMULATION CONTAINING THIENOTRIAZOLODIAZEPINE COMPOUNDS” (ONCOETHIX GmbH, priority 2013, published 2016).

Holding throughout (format): cell-based
Data set [1] concerns HL60. Put plainly: Apoptosis assessment (annexin V/PI flow cytometry). Here is the method:
(§1) a total of 1×10^6 cellsderived from patients or cell lines were resuspended in 1 mL culture medium and incubated with the indicated dosages of OTX015 prepared freshly from 1 mM stock solution in DMSO. Control cells were incubated with the corresponding amount of dimethyl sulfoxide (DMSO 0.2-1%) to exclude toxicity of the excipient. Apoptotic cells were detected by cytofluorometric analysis using a FACScan (Becton Dickinson, Mountain View, USA). Cells were stained with propidium iodide (PI; 5 μg/mL; Becton Dickinson) and concomitantly for 15 minutes at RT with annexin-V-FITC (Becton Dickinson) according to the manufacturer's instructions to determine outer membrane phosphatidyl serine exposure. Data were analyzed with the Flowjo (Tree Star Inc., Ashland, USA) flow cytometry software.

The subject of data set [2] is Jurkat. Put plainly: Apoptosis assessment (annexin V/PI flow cytometry). On the procedure: as §1
For orientation: Flow cytometry measures light scatter and fluorescence of single cells or particles in a stream.

Data set [3] deals with K562. Put plainly: Apoptosis assessment (annexin V/PI flow cytometry). Here is the method: as §1
Data set [4] concerns KG1a. Put plainly: Apoptosis assessment (annexin V/PI flow cytometry). The conditions noted are these: 96 hours at 10 nM. Here is the method: as §1
Data set [5] has as its system KG1. Put plainly: Apoptosis assessment (annexin V/PI flow cytometry). On the procedure:
as §1

Data set [6] concerns RS4-11. Put plainly: Apoptosis assessment (annexin V/PI flow cytometry). The conditions noted are these: RS4-11, 96 hours at 10 nM. Here is the method:
as §1

The subject of data set [7] is TOM-1. Put plainly: Apoptosis assessment (annexin V/PI flow cytometry). Particulars: TOM-1, 96 hours at 10 nM. Here is the method:
as §1

Data set [8] relates to CD34+ and CD34− AML cells. Put plainly: Apoptosis in primary cells. The conditions noted are these: CD34+ and CD34− cells of one AML patient, 24 hours. On the procedure: as §1
(§2) The efficacy of Compound (1-1) to induce apoptosis in primary cells was investigated. CD34+ and CD34− cells were obtained by positive selection with CD34+ microbeads from cord blood (healthy controls) and one AML patient.

Data set [9] deals with CD34+ cord blood cells. Put plainly: Apoptosis in primary cells. The conditions noted are these: CD34+ cord blood cells of healthy controls, 500 nM, 24 hours. Here is the method:
as §1, §2

Data set [10] has as its system CD34− cord blood cells. Put plainly: Apoptosis in primary cells. The conditions noted are these: CD34− cord blood cells of healthy controls, 24 hours. On the procedure:
as §1, §2

Data set [11] has as its system BRD2, BRD3, BRD4 and c-MYC. Put plainly: Immunoblot of BRD proteins and c-MYC in leukemia cell lines. The conditions noted are these: different leukemia cell lines, 100 nM, within 3 hours. A general note: In western blotting, separated proteins are transferred to a membrane and probed.
The subject of data set [12] is c-MYC. Put plainly: QT-PCR of c-MYC in leukemia cell lines. Particulars: all cell lines, 250 nM and 500 nM, 48 h. On the procedure:
The oncogene c-MYC is thought to be activated by BRD4 and is crucial for leukemia maintenance. […] We determined basal gene expression levels of c-MYC in different leukemia cell lines showing heterogeneous results without clear correlation to biologic effects of Compound (1-1) in regard to MTT, apoptosis or cell cycle effects (FIGS. 42A and 42B).
The total RNA obtained after extraction with TRIZOL (Invitrogen, Grand Island, USA) were titrated to 1 μg/uL and stored at −80° C. The complementary DNA (cDNA) was synthesized from 1 μg RNA. The RQ-PCR reactions (BRD2, BRD3, BRD4, c-MYC and ABL) were performed in a volume of 25 ul from a tenth of the cDNA (equivalent to 100 ng of RNA) on a thermocycler ABI7900HT in standard mode (1 cycle of 2 minutes at 50° C.-10 minutes at 95° C. followed by 50 cycles of 15 seconds at 95° C.-1 minute at 60° C.).

In data set [13] the test system is BRD4, BRD3 and c-MYC in K562. Put plainly: Immunoblot (protein level) in K562. Particulars: K562, 500 nM, starting after 24 h. On the procedure: (§3) FIGS. 43A-43L illustrate effects of OTX015 at the protein level for BRD 4, BRD2 and BRD 3 as well as c-MYC. […] AML cell lines HL60, K562 (FIGS. 43A-43C; FIG. 43D-43F) and ALL cell lines Jurkat and RS4-11 (FIG. 43G-43I; FIG. 4JD-43L) were treated with OTX015 at 500 nM and compared to controls exposed to according DMSO. At indicated time-points proteins were extracted and immunoblotted with BRD4, BRD3, BRD2 or c-MYC antibodies after gel electrophoresis. […] One representative experiment out of three is shown.
(§4) The membranes were blocked with LiCor blocking buffer (LiCor, Lincoln, Nebr., USA) and incubated with the respective primary antibody: anti-BRD4 (Epitomics 5716-1, Burlingame, USA), anti-BRD3 (ab56342, AbCam, UK), anti-BRD2 (ab37633, AbCam, UK), anti c-MYC (sc-764 (N262), Santa Cruz, USA) and anti-GAPDH (Invitrogen 398600, Grand Island, USA). Blots were stained with either goat anti-rabbit InfraRedDye 680RD or goat anti-mouse InfraRedDye 800CWsecondary antibody (LiCor). Membranes were imaged using a LiCor Odyssey scanner. Boxes were manually placed around each band of interest, which returned near-infrared fluorescent values of raw intensity with intra-lane background subtracted using Odyssey 3.0 analytical software (LiCor).

The subject of data set [14] is BRD4, BRD3 and c-MYC in RS4-11. Put plainly: Immunoblot (protein level) in RS4-11. The conditions noted are these: RS4-11, 500 nM. On the procedure: as §3, §4

Consider `Cc1sc2c(c1C)C(c1ccc(Cl)cc1)=N[C@@H](CC(=O)Nc1ccc(O)cc1)c1nnc(C)n1-2` [Compound (1-1), 2-[(6S)-4-(4-chlorophenyl)-2,3,9-trimethyl-6H-thienol[3,2-f]-[1,2,4]triazolo[4,3-a][1,4]diazepin-6-yl]-N-(4-hydroxyphenyl)acetamide dihydrate], for which the “delayed apoptosis after drug washout” value in [1] (HL60, 6 hours exposure, read at 96 hours) was “significant delayed apoptosis”; in data set [2] (6 hours exposure, read at 96 hours), “significant delayed apoptosis”; in [3] (K562, 6 hours exposure, read at 96 hours) it was “but not in the less sensitive K562”. In addition, the apoptosis in [1] (HL60, 96 hours at 10 nM) is recorded as more than 90%; in data set [2] (96 hours at 10 nM), more than 90%; in [3] (K562, 96 hours at 10 nM), 20%; in [4], 45%; in data set [5] (KG1, 96 hours at 10 nM), more than 90%; in data set [6] it was 30%. This molecule also had an apoptosis in [7] of 70%. For the same molecule, the apoptotic cells in [3] (K562, at 24 hours) was found to be 20%. For the same molecule, the “induction of apoptosis at lower dose” value in [5] (KG1, 10 nM, 72 hours) is listed as “induced apoptosis after prolonged incubation”. Further, the “in vitro induction of apoptosis” value in data set [8] is “induction of apoptosis in a dose dependent manner”. For the same molecule, in data set [9], the “toxicity (apoptosis) for immature cord blood cells” value is “toxicity for immature CD34+ cells at the 500 nM dose level”. In data set [10], the “toxicity (apoptosis) for mature cord blood compartment” value is “remained unaffected”. Besides, the “regulation of BRD2, BRD3, BRD4 and c-MYC at the protein level” value in [11] was “rapid down-regulation of BRD2, BRD3 and BRD4 associated with c-MYC down-regulation”. Further, the c-MYC gene expression entry in data set [12] is on record as “c-MYC downregulation was observed in all cell lines”. The “BRD4, BRD3 and c-MYC protein level” value in [13] was “downregulation of BRD4, BRD3 and c-MYC”; in data set [14], “remained unaffected”.
